Measurements: patent EP0007672A1, “Isocyanoalkenes, process and useful intermediates for their preparation, pharmaceutical and fungicidal preparations containing those isocyanoalkenes and the use of the fungicidal preparations in agriculture” (GIST-BROCADES N.V., priority 1978, dated 1980)
Values after ≈ are worked out from the molar mass of the structure shown. Read-outs that look alike come from different tables or passages of the source.

What was measured:
Test in all cases: MIC (Minimum Inhibitory Concentration)
Format in all cases: cell-based
[1] = system: Trichophyton soudanese joyeux; settings: Trichophyton soudanese joyeux 440-63; read-out: MIC values
[2] = system: Trichophyton mentagrophytus
Trichophyton equinum = system: Trichophyton equinum
Trichophyton quickeaneum = Trichophyton quickeaneum A 2040; read-out: MIC values
Trichophyton verrucosum = system: Trichophyton verrucosum
Trichophyton rubrum = system: Trichophyton rubrum
Pasteurella multocida = Pasteurella multocida A 723; read-out: MIC values
Trichophyton tonsurans = Trichophyton tonsurans 561-50; read-out: MIC values
[3] = system: Trichophyton schoenleinii; settings: Trichophyton schoenleinii 435-63; read-out: MIC values
Trichophyton violoceum = Trichophyton violoceum 442-62; read-out: MIC values
Candida albicans = system: Candida albicans
[4] = Trichophyton mentagrophytus 367-68, read-out: MIC values
[5] = Trichophyton mentagrophytus 421-67, read-out: MIC values
[6] = Trichophyton mentagrophytus A 3252, read-out: MIC values
[7] = Trichophyton mentagrophytus R 177, read-out: MIC values
[8] = Trichophyton mentagrophytus R 178, read-out: MIC values
[9] = Trichophyton mentagrophytus RRL 305, read-out: MIC values
[10] = Trichophyton equinum 182-76, read-out: MIC values
[11] = Trichophyton equinum 856-71, read-out: MIC values
[12] = Trichophyton verrucosum 134-66, read-out: MIC values
[13] = Trichophyton verrucosum A 2922, read-out: MIC values
[14] = Trichophyton rubrum 218-65, read-out: MIC values
[15] = Trichophyton rubrum 494-62, read-out: MIC values
[16] = Trichophyton rubrum A 810, read-out: MIC values
[17] = Candida albicans A 7, read-out: MIC values
[18] = Candida albicans A 3140, read-out: MIC values
[19] = Candida albicans A 3141, read-out: MIC values
[20] = Candida albicans A 3144, read-out: MIC values
[21] = Candida albicans A 3145, read-out: MIC values
[22] = Candida albicans A 3165, read-out: MIC values
[23] = Candida albicans A 3166, read-out: MIC values
[24] = Candida albicans A 3167, read-out: MIC values
[25] = Candida albicans A 3168, read-out: MIC values
[26] = Candida albicans A 3169, read-out: MIC values
[27] = Candida albicans A 3171, read-out: MIC values
[28] = Candida albicans A 3190, read-out: MIC values
[29] = Candida albicans A 3191, read-out: MIC values
[30] = Candida albicans A 3194, read-out: MIC values
[31] = Candida albicans A 3196, read-out: MIC values

Structure (SMILES): [C-]#[N+]C(=C(C)CC)S(=O)(=O)c1ccc(C)cc1 [Example 27a, 1-isocyano-2-methyl-1-(4-toluenesulphonyl)-1-butene]
- MIC [1]: 6 µg/mL (≈ 24.1 µM)
- MIC [2, 4]: 6 µg/mL (≈ 24.1 µM)
- MIC [2, 5]: 6 µg/mL (≈ 24.1 µM)
- MIC [2, 6]: 6 µg/mL (≈ 24.1 µM)
- MIC [2, 7]: 6 µg/mL (≈ 24.1 µM)
- MIC [2, 8]: 6 µg/mL (≈ 24.1 µM)
- MIC [2, 9]: 3 µg/mL (≈ 12 µM)
- MIC (Trichophyton equinum; [10]): 0.4 µg/mL (≈ 1.6 µM)
- MIC (Trichophyton equinum; [11]): < 0.05 µg/mL
- MIC (Trichophyton quickeaneum): 0.1 µg/mL (≈ 0.401 µM)
- MIC (Trichophyton verrucosum; [12]): 0.8 µg/mL (≈ 3.21 µM)
- MIC (Trichophyton verrucosum; [13]): 6 µg/mL (≈ 24.1 µM)
- MIC (Trichophyton rubrum; [14]): 0.4 µg/mL (≈ 1.6 µM)
- MIC (Trichophyton rubrum; [15]): 0.4 µg/mL (≈ 1.6 µM)
- MIC (Trichophyton rubrum; [16]): 0.4 µg/mL (≈ 1.6 µM)
- MIC (Pasteurella multocida): 1.5 µg/mL (≈ 6.02 µM)
- MIC (Trichophyton tonsurans): 3 µg/mL (≈ 12 µM)
- MIC [3]: 6 µg/mL (≈ 24.1 µM)
- MIC (Trichophyton violoceum): 12.5 µg/mL (≈ 50.1 µM)
- MIC (Candida albicans; [17]): 0.2 µg/mL (≈ 0.802 µM)
- MIC (Candida albicans; [18]): 0.8 µg/mL (≈ 3.21 µM)
- MIC (Candida albicans; [19]): < 0.05 µg/mL
- MIC (Candida albicans; [20]): 0.2 µg/mL (≈ 0.802 µM)
- MIC (Candida albicans; [21]): < 0.05 µg/mL
- MIC (Candida albicans; [22]): 0.8 µg/mL (≈ 3.21 µM)
- MIC (Candida albicans; [23]): 3 µg/mL (≈ 12 µM)
- MIC (Candida albicans; [24]): 0.2 µg/mL (≈ 0.802 µM)
- MIC (Candida albicans; [25]): 0.2 µg/mL (≈ 0.802 µM)
- MIC (Candida albicans; [26]): 0.1 µg/mL (≈ 0.401 µM)
- MIC (Candida albicans; [27]): 0.2 µg/mL (≈ 0.802 µM)
- MIC (Candida albicans; [28]): < 0.05 µg/mL
- MIC (Candida albicans; [29]): 0.1 µg/mL (≈ 0.401 µM)
- MIC (Candida albicans; [30]): < 0.05 µg/mL
- MIC (Candida albicans; [31]): 0.4 µg/mL (≈ 1.6 µM)

Structure (SMILES): [C-]#[N+]C(C(C)=CC)S(=O)(=O)c1ccc(C)cc1 (stereo not drawn) [Example 27b, 1-isocyano-2-methyl-l-(4-toluenesulphonyl)-2-butene]
- MIC [1]: 6 µg/mL (≈ 24.1 µM)
- MIC [2, 4]: 3 µg/mL (≈ 12 µM)
- MIC [2, 5]: 3 µg/mL (≈ 12 µM)
- MIC [2, 6]: 3 µg/mL (≈ 12 µM)
- MIC [2, 7]: 6 µg/mL (≈ 24.1 µM)
- MIC [2, 8]: 6 µg/mL (≈ 24.1 µM)
- MIC [2, 9]: 3 µg/mL (≈ 12 µM)
- MIC (Trichophyton equinum; [10]): 0.8 µg/mL (≈ 3.21 µM)
- MIC (Trichophyton equinum; [11]): 0.4 µg/mL (≈ 1.6 µM)
- MIC (Trichophyton quickeaneum): 1.5 µg/mL (≈ 6.02 µM)
- MIC (Trichophyton verrucosum; [12]): 1.5 µg/mL (≈ 6.02 µM)
- MIC (Trichophyton verrucosum; [13]): 6 µg/mL (≈ 24.1 µM)
- MIC (Trichophyton rubrum; [14]): 1.5 µg/mL (≈ 6.02 µM)
- MIC (Trichophyton rubrum; [15]): 0.8 µg/mL (≈ 3.21 µM)
- MIC (Trichophyton rubrum; [16]): 0.8 µg/mL (≈ 3.21 µM)
- MIC (Pasteurella multocida): 3 µg/mL (≈ 12 µM)
- MIC (Trichophyton tonsurans): 3 µg/mL (≈ 12 µM)
- MIC [3]: 6 µg/mL (≈ 24.1 µM)
- MIC (Trichophyton violoceum): 6 µg/mL (≈ 24.1 µM)
- MIC (Candida albicans; [17]): 0.4 µg/mL (≈ 1.6 µM)
- MIC (Candida albicans; [18]): 0.8 µg/mL (≈ 3.21 µM)
- MIC (Candida albicans; [19]): < 0.05 µg/mL
- MIC (Candida albicans; [20]): 0.4 µg/mL (≈ 1.6 µM)
- MIC (Candida albicans; [21]): < 0.05 µg/mL
- MIC (Candida albicans; [22]): 1.5 µg/mL (≈ 6.02 µM)
- MIC (Candida albicans; [23]): 3 µg/mL (≈ 12 µM)
- MIC (Candida albicans; [24]): 0.4 µg/mL (≈ 1.6 µM)
- MIC (Candida albicans; [25]): 0.4 µg/mL (≈ 1.6 µM)
- MIC (Candida albicans; [26]): 0.4 µg/mL (≈ 1.6 µM)
- MIC (Candida albicans; [27]): 0.4 µg/mL (≈ 1.6 µM)
- MIC (Candida albicans; [28]): 0.1 µg/mL (≈ 0.401 µM)
- MIC (Candida albicans; [29]): 0.2 µg/mL (≈ 0.802 µM)
- MIC (Candida albicans; [30]): 0.4 µg/mL (≈ 1.6 µM)
- MIC (Candida albicans; [31]): 0.4 µg/mL (≈ 1.6 µM)
